Experimental data as given in publication PMC10244669, “Virtual screening–based discovery of AI-2 quorum sensing inhibitors that interact with an allosteric hydrophobic site of LsrK and their functional evaluation” (Frontiers in Chemistry, 2023).
Entries after “also recorded” stand apart in the source; their conditions may differ. Where two headings read alike, the source gives them in different places.

What was measured:
[1] = test system: AI-2-mediated QS (lsr promoter luminescence, reporter strain WHQ02); experiment: Cell-based AI-2-mediated QS interference assay; design: species or system E. coli; settings: for AI-2 QS inhibitory activity (in words) / maximum AI-2 QS inhibition: 100 to 3.13 μM; for IC50: Escherichia coli, cell-based QS interference assay, WHQ02, mean ± SD, n = 3
Source text: All chemicals were purchased from Sigma-Aldrich (St. Louis, MO, United States) unless otherwise stated. DPD was purchased from the […] ZZBIO Co., LTD. (Shanghai, China). The Kinase-Glo Max Luminescent Kinase Assay Kit was purchased from Promega (Madison, WI, United States). NTA sensor chips were purchased from GE Healthcare (Chicago, IL, United States). All compounds used as potential inhibitors of LsrK were purchased from Topscience Biotechnology Co. Ltd. (Shanghai, China). The QS reporter strain WHQ02 (E. coli BL21 ΔTolC pWHQ01) was donated by Huiqi Wen (Institute of Microbiology and Epidemiology, Academy of Military Sciences, Beijing, China). The plasmid pWHQ01 was constructed by cloning the lsr promoter and the luxCDABE luminescent gene. BamHI and XhoI were purchased from New England Biolabs (Ipswich, MA, United States). pET-28a was purchased from Novagen (Madison, WI, United States). Escherichia coli BL21 (DE3) cells were purchased from TransGen Biotech Co., LTD. (Beijing, China). A Ni-NTA column was purchased from Sangon Biotech (Shanghai, China). Sodium dodecyl sulfate-polyacrylamide gel electrophoresis (SDS-PAGE) and the Bradford Protein Assay Kit were purchased from Thermo Fisher Scientific (Waltham, MA, United States).
(§1) WHQ02 cultured overnight were diluted 1:100 in fresh LB supplemented with 100 μg/mL ampicillin and grown at 30°C and until the logarithmic phase (OD600 = 0.4–0.6). The bacterial culture was centrifuged at 4,000 × g for 5 min, and the pellet was resuspended in fresh LB medium to prepare a suspension of 2 McFarland standard and added to the 96-well plate. In the experimental group, 74 compounds (final concentrations ranging from 100 to 3.125 μM) were added to reach a total volume of 100 µL. In addition, 100 µL LB medium with an equal volume of DMSO (negative control) or 100 µL LB supplemented with 2% glucose and the same volume of DMSO (positive control) were added. Bacteria was cultured at 37°C with shaking for 3 h. The […] of WHQ02 is directly regulated by the lsr promoter, reflecting the strength of QS. The luminescence and OD600 were measured using an Enspire 2300 microplate reader (Perkin Elmer). To further study the effect of compounds on bacterial growth, overnight cultured WHQ02 was diluted 1:1,000 with LB medium and added to 96 well plate. Then, the compounds were added to a 96-well plate (final concentration: 100 µM) and diluted in a gradient. The same volume of DMSO was added to the control group. The plates were incubated at 37°C for 18 h. OD600 values were recorded using an Enspire 2300 microplate reader. The experiment was performed in triplicate.

LsrK [2] = target: T1, LsrK (Salmonella typhimurium, UniProt Q8ZKQ6); experiment: LsrK inhibition assay (Kinase-Glo luminescence); type: biochemical; settings: for IC50 / inhibition at 200 µM / Inhibition (%): mean ± SD, n = 3; for inhibition at 200 µM: Table 1, hits at 200 μM with 100 μM ATP; for type of LsrK inhibition: from IC50 values at 50, 100 and 150 μM ATP; for Inhibition (%): Supplementary Table 1, 200 uM compound, * = colour of the compound interferes with luminescence
Method: (§2) To express LsrK with a 6 × His-tag at the C-terminus, the LsrK encoding gene of Salmonella typhimurium was amplified using primers carrying restriction endonuclease sites BamHI and XhoI. The amplified product was cloned into the expression vector pET-28a with a C-terminal 6 × His-tag and transfected into E. coli BL21 (DE3).
This assay was performed as previously described ([Gatta et al., 2019]), and the conditions were optimized. […] 74 purchased compounds were dissolved in dimethyl sulfoxide (20% v/v DMSO in reaction buffer) at a concentration of 2 mM. Briefly, 10 μL DPD, 10 μL LsrK, and 5 μL compound were added to a 96-well plate, and 25 μL ATP or 25 μL reaction buffer was added after 30 min incubation. The plate was incubated for 10 min at 37°C, then 50 μL of kit reagent was added, and the plate was incubated at 37°C for 15 min. The luminescence signal was measured using an Enspire 2300 microplate reader (PerkinElmer). Dose-response tests were carried out to verify the activity of hits chosen by primary screening. (200 μM–6.25 µM) ([Medarametla et al., 2018]). The inhibition percentage of each tested compound was determined as previously described and IC50 was calculated using four logistic parameters.

[3] = test system: WHQ02 (E. coli BL21 ΔTolC pWHQ01); experiment: Growth inhibition of the reporter strain (OD600); type: cell-based; settings: 100 to 3.13 μM
Method: as §1
The 12 hits showing >60% LsrK inhibition were tested for QS inhibition using cell-based AI-2-mediated QS interference assay, as previously described [Baba et al., 2006]). To ensure that lower luminescence was the result of QS inhibition not the chemical toxicity or antibacterial activity, strain growth inhibition was assessed concurrently. […] Therefore, a parallel experiment to test the MIC of compounds at a low bacterial density was conducted, indirectly reflecting the potential growth inhibition to avoid false positives.

LsrK [4] = target: T1, LsrK; experiment: SPR assay; type: binding
Source text: as §2
His-tagged LsrK was immobilized in the NTA sensor chip (GE Healthcare) in Biacore 8 K using a running buffer consisting of 1 × PBS-T and 5% v/v DMSO. Serially diluted small molecules (concentration range: 50 to 1.56 µM) were injected. Intermediate concentration (12.5 µM) was set as a repeat, and 1 × PBS-T with 5% v/v DMSO was set as the control. The association time was set to 120 s; the dissociation time was set to 130 s; and the flow rate was set to 30 μL/min. The resulting data were fitted to the affinity binding model using Biacore Evaluation Software (GE Healthcare).

LsrK [5] = settings: Figure 2, cited from earlier work
AI-2 QS = settings: Figure 2, ref Gatta et al., cited from earlier work

T1 sequence (Q8ZKQ6 whole entry): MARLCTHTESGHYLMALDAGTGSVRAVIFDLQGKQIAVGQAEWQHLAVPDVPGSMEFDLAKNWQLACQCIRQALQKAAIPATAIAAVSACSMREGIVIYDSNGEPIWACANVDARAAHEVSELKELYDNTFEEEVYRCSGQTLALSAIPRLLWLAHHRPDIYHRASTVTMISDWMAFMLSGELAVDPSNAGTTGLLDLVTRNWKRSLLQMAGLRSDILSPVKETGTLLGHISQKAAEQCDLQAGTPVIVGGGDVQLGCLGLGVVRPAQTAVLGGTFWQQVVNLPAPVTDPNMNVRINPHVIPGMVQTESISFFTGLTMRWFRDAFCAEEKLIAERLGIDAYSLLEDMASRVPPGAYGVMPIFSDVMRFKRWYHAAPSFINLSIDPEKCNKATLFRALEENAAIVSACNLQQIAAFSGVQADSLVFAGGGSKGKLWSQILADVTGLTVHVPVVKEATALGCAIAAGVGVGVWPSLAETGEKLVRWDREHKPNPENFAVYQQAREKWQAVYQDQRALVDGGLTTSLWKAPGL

SMILES: COC(=O)CSC1=NC(=O)C[C@H](c2ccc(Cl)cc2)[C@H]1C#N [2188–1861]
- AI-2 QS inhibitory activity (in words) [1]: significant QS inhibitory activities
- IC50 [1]: 38.4 ± 3.35 µM
- IC50 (LsrK [2]; 100 μM ATP, read-out: IC50B): 129 ± 6.85 µM
- inhibition at 200 µM (LsrK [2]): 92.1 ± 6.68%

SMILES: CCOc1ccc(/C=N\NC(=S)Nc2cccc(C(=O)O)c2)cc1O [3284–0335]
- IC50 [1]: > 100 µM
- IC50 (LsrK [2]; 100 μM ATP, read-out: IC50B): 84.9 ± 7.73 µM
- inhibition at 200 µM (LsrK [2]): 67.6 ± 4.88%

SMILES: C/C(=N/NC(=S)Nc1cccc(C(=O)O)c1)c1ccc(C)cc1 [3284–1358]
- maximum growth inhibition [3]: < 40%
- AI-2 QS inhibitory activity (in words) [1]: significant QS inhibitory activities
- maximum AI-2 QS inhibition [1]: > 80%
- IC50 [1]: 37.8 ± 3.18 µM
- IC50 (LsrK [2]; 50 μM ATP, read-out: IC50A): 29.9 ± 1.95 µM
- IC50 (LsrK [2]; 100 μM ATP, read-out: IC50B): 41.8 ± 2.57 µM
- IC50 (LsrK [2]; 150 μM ATP, read-out: IC50C): 88.1 ± 3.89 µM
- inhibition at 200 µM (LsrK [2]): 101 ± 3.82%
- type of LsrK inhibition (LsrK [2]): ATP-competitive inhibitors

SMILES: O=C1NC(=S)S/C1=C\c1c[nH]c2ccc(OCc3ccccc3)cc12 [3681–1274]
- AI-2 QS inhibitory activity (in words) [1]: significant QS inhibitory activities
- IC50 [1]: 42.2 ± 2.15 µM
- IC50 (LsrK [2]; 100 μM ATP, read-out: IC50B): 133 ± 8.85 µM
- inhibition at 200 µM (LsrK [2]): 66.2 ± 3.54%

SMILES: O=C(O)C[C@H]1S/C(=N\N=C2\C(=O)Nc3ccccc32)N(c2ccc(O)cc2)C1=O [4515–0182]
- IC50 [1]: > 100 µM
- IC50 (LsrK [2]; 100 μM ATP, read-out: IC50B): 52.1 ± 2.68 µM
- inhibition at 200 µM (LsrK [2]): 83.7 ± 9.63%

SMILES: Cc1[nH]c(C(=O)N/N=C\c2ccc(O)c(O)c2)c(C)c1C(=O)N/N=C\c1ccc(O)c(O)c1 [5617–0915]
- IC50 [1]: > 100 µM
- IC50 (LsrK [2]; 100 μM ATP, read-out: IC50B): 79.4 ± 4.55 µM
- inhibition at 200 µM (LsrK [2]): 71.5 ± 4.33%

SMILES: O=C(O)CCc1ccc(-c2ccccc2)n1CC(=O)Nc1ccccc1C(F)(F)F [D135-0149]
- maximum growth inhibition [3]: < 40%
- AI-2 QS inhibitory activity (in words) [1]: significant QS inhibitory activities
- maximum AI-2 QS inhibition [1]: > 80%
- IC50 [1]: 22.1 ± 1.66 µM
- IC50 (LsrK [2]; 50 μM ATP, read-out: IC50A): 21.8 ± 1.48 µM
- IC50 (LsrK [2]; 100 μM ATP, read-out: IC50B): 33.5 ± 2.52 µM
- IC50 (LsrK [2]; 150 μM ATP, read-out: IC50C): 80.1 ± 4.83 µM
- inhibition at 200 µM (LsrK [2]): 83.9 ± 6.33%
- type of LsrK inhibition (LsrK [2]): ATP-competitive inhibitors

SMILES: Cc1c(O)cc(O)c2c(=O)c(O)c(-c3ccc(O)c(O)c3)oc12 [N025-0038]
- AI-2 QS inhibitory activity (in words) [1]: significant QS inhibitory activities; also recorded: exhibited AI-2 QS inhibition at sub-minimum inhibitory concentrations; also recorded: exhibited QS inhibition at sub-MIC concentrations
- IC50 [1]: 12.5 ± 0.99 µM
- IC50 (LsrK [2]; 50 μM ATP, read-out: IC50A): 26.6 ± 1.22 µM
- IC50 (LsrK [2]; 100 μM ATP, read-out: IC50B): 43.7 ± 4.31 µM
- IC50 (LsrK [2]; 150 μM ATP, read-out: IC50C): 68 ± 1.27 µM
- inhibition at 200 µM (LsrK [2]): 80.5 ± 2.31%
- type of LsrK inhibition (LsrK [2]): ATP-competitive inhibitors
- Kd (LsrK [4]; His-tagged LsrK on NTA chip, 50 to 1.56 µM, affinity binding model): 30.3 µM
- LsrK specific binding (in words) (LsrK [4]; SPR): specifically bound to LsrK; also recorded: exhibited LsrK specific binding

SMILES: Cc1c(CC(=O)O)c(=O)oc2cc(OCc3ccc(C(=O)O)o3)ccc12 [Y040-9027]
- IC50 [1]: > 100 µM
- IC50 (LsrK [2]; 100 μM ATP, read-out: IC50B): 90 ± 5.18 µM
- inhibition at 200 µM (LsrK [2]): 94.1 ± 6.72%

SMILES: O=C(O)[C@@H]1[C@@H](C(=O)Nc2cc(C(F)(F)F)ccc2Cl)[C@H]2C=C[C@@H]1O2 [Y204-6349]
- IC50 [1]: > 100 µM
- IC50 (LsrK [2]; 100 μM ATP, read-out: IC50B): 75.1 ± 1.19 µM
- inhibition at 200 µM (LsrK [2]): 87.4 ± 2.6%

SMILES: Cc1ccc(C(=O)O)cc1NC(=O)c1nn2cccnc2c1Cl [Y502-2013]
- IC50 [1]: > 100 µM
- IC50 (LsrK [2]; 100 μM ATP, read-out: IC50B): 140 ± 5.54 µM
- inhibition at 200 µM (LsrK [2]): 69.1 ± 8.64%

SMILES: O=C(NC(Cc1c[nH]c2ccccc12)C(=O)O)c1ccccc1Cl (stereo not shown) [Z85881721]
- Inhibition (%) (LsrK [2]; 100 μM ATP): 10.12 ± 8.78%

SMILES: O=C(O)CCn1c(=O)[nH]c(=O)c2ccccc21 [Z166653136]
- Inhibition (%) (LsrK [2]; 100 μM ATP): 0%

SMILES: CN(C)C(=O)C1CCCN1Cc1nc2sc(-c3ccccc3)cc2c(=O)[nH]1 (stereo not shown) [Z196022762]
- Inhibition (%) (LsrK [2]; 100 μM ATP): 57.11 ± 2.22%

SMILES: CC(C)c1ccc2nc(Cc3cccc(C(N)=O)c3)[nH]c(=O)c2c1 [Z951211480]
- Inhibition (%) (LsrK [2]; 100 μM ATP): 0%

SMILES: Cc1ccc(Cl)c(Nc2ccccc2C(=O)O)c1Cl [compound 1]
- IC50 (LsrK [5]; ref Medarametla et al., 2018): 178 µM

SMILES: O=C(O)CC(=O)Nc1ccc2nc(N(Cc3ccccc3)C(=O)c3cc(Br)c(Br)[nH]3)sc2c1 [compound 2]
- IC50 (AI-2 QS; 2020): 17 µM
- IC50 (LsrK [5]; ref Gatta et al., 2020): 15 ± 1 µM

SMILES: O=C(O)C(=O)Nc1nc2ccc(NC(=O)c3cc(Br)c(Br)[nH]3)cc2s1 [compound 3]
- IC50 (AI-2 QS; 2020): 0.6 ± 0.1 µM
- IC50 (LsrK [5]; ref Gatta et al., 2020): 18 ± 2 µM

SMILES: C[C@]1(OC(=O)/C=C/c2ccccc2)C[C@@H](O)[C@]2(O)C=CO[C@@H](O[C@@H]3O[C@H](CO)[C@@H](O)[C@H](O)[C@H]3O)[C@@H]21 [compound 4, harpagoside]
- IC50 (AI-2 QS; 2019): 14 µM
- IC50 (LsrK [5]; ref Gatta et al., 2019): 10 µM

SMILES: O=C1C=CC(=C(c2ccc(O)cc2)c2ccc(O)cc2)C=C1 [compound 5, rosolic acid]
- IC50 (AI-2 QS; 2019): 11 µM
- IC50 (LsrK [5]; ref Gatta et al., 2019): 1 µM

SMILES: Cn1nc(-c2ccccc2)cc1C1COC2(CCCCC2)O1 (stereo not shown) [compound 6]
- IC50 (LsrK [5]; ref Stotani et al., 2019): 119 µM
